According to patent US20250215029A1 (Recludix Pharma, Inc., priority 2022, published 2025):

Assays:
[1] = target: T1, Recombinant STAT6 protein (STAT6 (W123-T658)) (Homo sapiens, UniProt P42226); experiment: STAT6 Fluorescence Polarization (FP) Assay; type: binding; details: STAT6 (W123-T658) 250 nM, probe 5-FAM-Ap[…]-NH2 2 nM, 45-minute incubation; read-out: STAT6 (FP assay IC50 class)
T1 construct: Recombinant STAT6 protein (STAT6 (W123-T658))
T1 sequence (P42226 123-658): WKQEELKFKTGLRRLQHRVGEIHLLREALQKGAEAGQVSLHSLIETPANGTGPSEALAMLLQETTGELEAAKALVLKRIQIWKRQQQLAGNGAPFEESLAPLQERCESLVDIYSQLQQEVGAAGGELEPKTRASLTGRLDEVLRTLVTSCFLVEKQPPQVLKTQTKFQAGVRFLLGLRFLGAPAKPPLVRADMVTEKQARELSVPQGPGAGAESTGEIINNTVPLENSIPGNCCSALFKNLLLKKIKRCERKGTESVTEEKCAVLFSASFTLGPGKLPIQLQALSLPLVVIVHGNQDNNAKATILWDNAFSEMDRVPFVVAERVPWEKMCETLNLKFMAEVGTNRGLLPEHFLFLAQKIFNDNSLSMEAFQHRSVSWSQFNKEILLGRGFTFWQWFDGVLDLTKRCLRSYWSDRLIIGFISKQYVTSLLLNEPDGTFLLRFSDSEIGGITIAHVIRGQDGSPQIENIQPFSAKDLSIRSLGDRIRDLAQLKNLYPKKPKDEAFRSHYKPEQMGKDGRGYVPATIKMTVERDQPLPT
How it was run: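 Fluorescence polarization (mP) read-out: 250 nM STAT6 (W123-T658) plus 2 nM 5-FAM phosphotyrosine peptide, 45 min, room temperature, 1% DMSO. IC50 by nonlinear fit of mP against log compound concentration.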

[2] = target: T2, Recombinant STAT3 protein (STAT3 (G127-I722)) (Homo sapiens, UniProt P40763); experiment: STAT3 Fluorescence Polarization (FP) Assay; type: binding; details: STAT3 (G127-I722) 25 nM, probe 5-FAM-GpYLPQTV-NH2 2 nM, 45-minute incubation; read-out: STAT3 (FP assay IC50 class)
T2 construct: Recombinant STAT3 protein (STAT3 (G127-I722))
T2 sequence (P40763 127-722): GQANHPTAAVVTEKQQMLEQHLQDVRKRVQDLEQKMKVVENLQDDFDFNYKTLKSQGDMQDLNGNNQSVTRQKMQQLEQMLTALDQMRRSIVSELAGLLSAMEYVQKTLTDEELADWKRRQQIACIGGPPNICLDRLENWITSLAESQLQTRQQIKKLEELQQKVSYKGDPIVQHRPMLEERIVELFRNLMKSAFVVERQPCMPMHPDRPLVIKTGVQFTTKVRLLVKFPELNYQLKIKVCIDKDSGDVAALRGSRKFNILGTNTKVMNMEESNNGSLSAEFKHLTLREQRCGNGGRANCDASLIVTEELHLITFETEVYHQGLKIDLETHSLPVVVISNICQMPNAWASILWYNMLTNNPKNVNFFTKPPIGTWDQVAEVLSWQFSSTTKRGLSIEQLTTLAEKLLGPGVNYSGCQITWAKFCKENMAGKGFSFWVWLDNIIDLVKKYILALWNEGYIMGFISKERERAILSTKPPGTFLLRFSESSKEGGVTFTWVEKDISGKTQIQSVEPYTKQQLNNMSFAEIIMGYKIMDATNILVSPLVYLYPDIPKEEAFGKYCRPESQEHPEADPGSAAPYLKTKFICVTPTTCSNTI
How it was run: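 In this competition FP format, STAT3 residues G127-I722 (25 nM) and 2 nM 5-FAM-GpYLPQTV-NH2 met test compounds for 45 min at room temperature. IC50 values result from fitting mP signal against log concentration by nonlinear regression.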

IC50 [1] [µM] | IC50 [2] [nM] | SMILES
3 to 30 | 1000 to 10000 | COc1ccnc(F)c1C1CN(C(=O)[C@@H]2CC[C@@H]3CCC[C@H](NC(=O)c4cc5cc(CP(=O)(O)O)ccc5s4)C(=O)N32)C1 [Compound 578, ((2-(((3S,6S,9aS)-3-(3-(2-fluoro-4-methoxypyridin-3-yl)azetidine-1-carbonyl)-5-oxooctahydro-1H-pyrrolo[1,2-a]azepin-6-yl)carbamoyl)benzo[b]thiophen-5-yl)methyl)phosphonic acid]
3 to 30 | 100 to 1000 | O=C(N[C@H]1CCCC[C@H]2CC[C@@H](C(=O)N3CCC(c4ccccn4)CC3)N2C1=O)c1cc2cc(C(F)P(=O)(O)O)ccc2s1 (stereo partly drawn) [Compound 579, (fluoro(2-(((3S,6S,10aS)-5-oxo-3-(4-(pyridin-2-yl)piperidine-1-carbonyl)decahydropyrrolo[1,2-a]azocin-6-yl)carbamoyl)benzo[b]thiophen-5-yl)methyl)phosphonic acid]
3 to 30 | 1000 to 10000 | Cc1nccc(F)c1C1CN(C(=O)[C@@H]2CC[C@@H]3CCC[C@H](NC(=O)c4cc5cc(CP(=O)(O)O)ccc5s4)C(=O)N32)C1 [Compound 580, ((2-(((3S,6S,9aS)-3-(3-(4-fluoro-2-methylpyridin-3-yl)azetidine-1-carbonyl)-5-oxooctahydro-1H-pyrrolo[1,2-a]azepin-6-yl)carbamoyl)benzo[b]thiophen-5-yl)methyl)phosphonic acid]
0.3 to 3 | 1000 to 10000 | Cn1cc(F)c(N2C(=O)N(C(=O)[C@@H]3CC[C@@H]4CCCC[C@H](NC(=O)c5cc6cc(C(F)P(=O)(O)O)ccc6s5)C(=O)N43)C3(CC3)C2=O)cc1=O (stereo partly drawn) [Compound 581, (fluoro(2-(((3S,6S,10aS)-3-(6-(5-fluoro-1-methyl-2-oxo-1,2-dihydropyridin-4-yl)-5,7-dioxo-4,6-diazaspiro[2.4]heptane-4-carbonyl)-5-oxodecahydropyrrolo[1,2-a]azocin-6-yl)carbamoyl)benzo[b]thiophen-5-yl)methyl)phosphonic acid]

Second part, the compound before the results:

SMILES | IC50 [1] [µM] | IC50 [2] [nM]
O=C(N[C@H]1CCC[C@H]2CC[C@@H](C(=O)N3CC(c4cccnc4)C3)N2C1=O)c1cc2cc(CP(=O)(O)O)ncc2s1 [Compound 574, ((2-(((3S,6S,9aS)-5-oxo-3-(3-(pyridin-3-yl)azetidine-1-carbonyl)octahydro-1H-pyrrolo[1,2-a]azepin-6-yl)carbamoyl)thieno[2,3-c]pyridin-5-yl)methyl)phosphonic acid] | 3 to 30 | 1000 to 10000
CCc1ccncc1C1CN(C(=O)[C@@H]2CC[C@@H]3CCC[C@H](NC(=O)c4cn5cc(CP(=O)(O)O)ccc5n4)C(=O)N32)C1 [Compound 575, ((2-(((3S,6S,9aS)-3-(3-(4-ethylpyridin-3-yl)azetidine-1-carbonyl)-5-oxooctahydro-1H-pyrrolo[1,2-a]azepin-6-yl)carbamoyl)imidazo[1,2-a]pyridin-6-yl)methyl)phosphonic acid] | 3 to 30 | 1000 to 10000
CCc1ccncc1C1CN(C(=O)[C@@H]2CC[C@@H]3CCC[C@H](NC(=O)c4ccc5sc(CP(=O)(O)O)cc5c4)C(=O)N32)C1 [Compound 576, ((5-(((3S,6S,9aS)-3-(3-(4-ethylpyridin-3-yl)azetidine-1-carbonyl)-5-oxooctahydro-1H-pyrrolo[1,2-a]azepin-6-yl)carbamoyl)benzo[b]thiophen-2-yl)methyl)phosphonic acid] | 3 to 30 | 100 to 1000
COc1cc(F)ncc1C1CN(C(=O)[C@@H]2CC[C@@H]3CCC[C@H](NC(=O)c4cc5cc(CP(=O)(O)O)ccc5s4)C(=O)N32)C1 [Compound 577, ((2-(((3S,6S,9aS)-3-(3-(6-fluoro-4-methoxypyridin-3-yl)azetidine-1-carbonyl)-5-oxooctahydro-1H-pyrrolo[1,2-a]azepin-6-yl)carbamoyl)benzo[b]thiophen-5-yl)methyl)phosphonic acid] | 3 to 30 | 1000 to 10000
